Converted amounts (≈) assume the structure as drawn. Read-outs that look alike come from different tables or passages of the source.
Tests used:
[1] = tested on: Staphylococcus aureus Newman mCherry; assay: MIC, broth microdilution, mCherry-expressing S. aureus Newman; format: cell-based
Description: (§1) Cefazolin was obtained from Acros Organics. Ciprofloxacin hydrochloride, linezolid and vancomycin hydrochloride were obtained from Sigma-Aldrich (St. Louis, MO, USA). Tetracycline hydrochloride was obtained from Alfa Aesar. Sorangicin A was provided by HZI, Braunschweig. Stock solutions were prepared in Milli-Q water or dimethyl sulfoxide (DMSO, Sigma-Aldrich). Minimum inhibitory concentrations (MICs) were determined in cation-adjusted Mueller-Hinton broth (MHB2) using the broth microdilution method as recommended by the Clinical and Laboratory Standards Institute (CLSI). The MIC was defined as the lowest concentration of the antibiotic causing complete inhibition of visible growth of the microorganism (CLSI, 2017).
(§2) 1. In vitro characterization of mCherry expressing Staphylococcus aureus Newman
(§3) 1.1 Minimum inhibitory concentration
(§4) Table S1. Antibiotic susceptibility profile of Staphylococcus aureus Newman. WT: wild type. […]

[2] = tested on: Staphylococcus aureus Newman WT; assay: MIC, broth microdilution, S. aureus Newman wild type; format: cell-based
Description: as §1, §2, §3, §4

[3] = tested on: mCherry-expressing S. aureus Newman; assay: Zebrafish embryo model of S. aureus yolk infection, antibiotic treatment efficacy; format: in vivo, Staphylococcus aureus
Description: With the aim to study the in vivo efficacy of drugs, 30 hpf zebrafish embryos were infected with 50 CFU of mCherry-expressing S. aureus Newman. Embryos were then left to recover from injection for two hours and subsequently treated with various reference antibiotics. Antibiotic treatment was performed via bath water immersion as well as via microinjection into the yolk (local treatment) and the caudal vein (systemic treatment) to study whether differences in in vivo activity exist between the three administration routes. Survival was assessed daily until 120 hpf. Additionally, the infection was visualized and quantified by means of fluorescence microscopy at 24 h post treatment (hpt). At the end of every experiment, living embryos (and dead embryos, if possible) were homogenized to determine the remaining bacterial count. Five approved antibiotics from different classes were assessed in vivo. The chosen drugs ought to differ in physicochemical properties, such as molecular weight and polarity, in order to detect a pattern between successful administration routes and the physicochemical properties of the drug. Prior to efficacy assessment, drug-mediated toxicity in zebrafish embryos was investigated using the same administration routes (Figure S3). For microinjection, a fixed dose of 20 to 30 mg/kg was used for each antibiotic. The concentration for bath water immersion was based on the minimum inhibitory concentration (MIC) and the maximum tolerated concentration (MTC) of the drug, whereby it is generally recommended to use 50- to 100-fold the antibacterial MIC to see a positive effect.
Pulled glass capillaries for microinjection (Table S2) were prepared using a micropipette puller (P-1000, Sutter Instrument). Dechorionated and anaesthetized embryos were infected with 50 colony-forming units (CFU) of mCherry-expressing S. aureus Newman by microinjection into the yolk sac at 30 hpf. In order to confirm bacterial numbers, an equal volume of bacterial cells was ejected onto Tryptic Soy Agar (TSA) supplemented with 10 µg/mL chloramphenicol before and after the injection. Antibiotic treatment was performed two hours post infection (hpi) via three different administration routes, namely bath water immersion and microinjection into the yolk sac as well as the caudal vein (CV). The infection procedure and treatment of infected embryos are described in details in the supplementary materials (Table S3).
Embryos were transferred individually to microcentrifuge tubes and washed at least three times with sterile PBS. 200 µL of sterile PBS were added and embryos were mechanically homogenized using a micropestle (Carl Roth, Karlsruhe, Germany). 800 µL of sterile PBS were added to reach a final volume of 1 mL. The homogenates were diluted and plated on tryptic soy agar (TSA). CFU counts were determined after 24 h of incubation at 37 °C.
Embryos were placed in a black 96-well plate (Falcon; Thermo Fisher, Dreieich, Germany) and cryo-anaesthetized by submersion into ice water. Images for quantitative fluorescence analysis were acquired using the following equipment: a fluorescence stereo microscope (M205 FA, Leica Microsystems, Wetzlar, Germany) in combination with a fluorescence illuminator (X-Cite, 200DC, Excelitas Technologies, Waltham, MA, USA) and a microscope camera (DFC7000 T, Leica Microsystems). Quantification of fluorescence was performed using Fiji ImageJ version 2.1.0. Fluorescent Integrated Density (FID) was determined by counting the number of pixels with fluorescence intensity greater than the threshold (10) and multiplying the count with its mean intensity. For confocal imaging, embryos were anaesthetized through immersion in tricaine (945 µM, Sigma-Aldrich) and immobilized in 1.2% low-melting agarose in a flat-bottom 96-well plate. Confocal images and time-lapse series were acquired using the Celldiscoverer 7 with LSM 900 (Zeiss) together with the 5×/0.35 Plan-APOCHROMAT objective.
2. […]

zebrafish embryos = assay: Toxicity of antimicrobials on zebrafish embryos; format: in vivo, Danio rerio; conditions: bath water immersion 50x MIC, no bacteria recovered from dead embryos
Description: Toxicity of antibiotics was assessed by aquatic exposure and microinjection. For evaluation of the maximum tolerated concentration (MTC) by aquatic exposure, embryos were dechorionated at 30 hpf and placed in a flat-bottom 96-well plate (Sarstedt) with one embryo per well. Excess medium was removed and 150 µL of compound dilutions (in 0.3× Danieau’s, maximum of 1% DMSO) were added. For each antibiotic, a range of concentrations was investigated. Ten embryos were used per concentration and ten additional embryos incubated in fish medium without any antibiotic served as negative control. Microinjection of antibiotics into the caudal vein (CV) and the yolk sac was performed as described earlier. PBS-injected embryos served as negative control. Exposed embryos were maintained at 28 °C throughout the whole experiment. Embryos were monitored daily under a stereo microscope (Stemi 508, Zeiss) in order to record survival as well as anomalies, pigmentation, heartbeat and locomotor responses. An embryo was considered dead when no heart beat could be observed.

[4] = Staphylococcus aureus, S. aureus Newman WT, MHB2 broth microdilution, read-out: MIC
[5] = bath water immersion 50-100x MIC
[6] = caudal vein microinjection 20-30 mg/kg, 2 hpi
[7] = yolk microinjection 20-30 mg/kg, 2 hpi
[8] = S. aureus Newman mCherry, MHB2 broth microdilution
[9] = S. aureus Newman WT, MHB2 broth microdilution

Row | Compound | MIC [2, 4] [µg/mL] | bacterial fluorescence (FID) at 24 hpt ([3]; bath water immersion) | effect on survival of infected embryos [3, 5] | bacterial fluorescence (FID) at 24 hpt ([3]; caudal vein microinjection) | effect on survival of infected embryos [3, 6] | bacterial fluorescence (FID) at 24 hpt ([3]; yolk microinjection) | effect on survival of infected embryos [3, 7] | further results
1 | CC1(C)S[C@@H]2[C@H](NC(=O)[C@H](N)c3ccccc3)C(=O)N2[C@H]1C(=O)O [ampicillin] | 0.125 (≈ 0.358 µM) |  |  |  |  |  |  | MIC ([1]; Staphylococcus aureus, NEWMAN): 0.5 µg/mL (≈ 1.43 µM)
2 | Cc1nnc(SCC2=C(C(=O)O)N3C(=O)[C@@H](NC(=O)Cn4cnnn4)[C@H]3SC2)s1 [cefazolin] |  | FID values equal to the positive control | did not show any effect | No fluorescence was observed | exhibit treatment efficacy | No fluorescence was observed | exhibit treatment efficacy | bacteria recovered (CFU plating) at 120 hpf ([3]; caudal vein microinjection): no colonies were recovered; bacteria recovered (CFU plating) at 120 hpf ([3]; yolk microinjection): no colonies were recovered
3 | O=C(N[C@H](CO)[C@H](O)c1ccc([N+](=O)[O-])cc1)C(Cl)Cl [chloramphenicol] | 8 (≈ 24.8 µM) |  |  |  |  |  |  | MIC ([1]; Staphylococcus aureus, NEWMAN): 64 µg/mL (≈ 198 µM)
4 | O=C(O)c1cn(C2CC2)c2cc(N3CCNCC3)c(F)cc2c1=O [ciprofloxacin] | 0.25 (≈ 0.754 µM) | a decrease in FID values | slightly prolong survival | No fluorescence was observed | exhibit treatment efficacy | No fluorescence was observed | exhibit treatment efficacy | embryos died due to infection ([3]; bath water immersion, 50 CFU yolk infection): more than 80%; bacteria recovered (CFU plating) at 120 hpf ([3]; caudal vein microinjection): no colonies were recovered; bacteria recovered (CFU plating) at 120 hpf ([3]; yolk microinjection): no colonies were recovered
5 | CC[C@H]1OC(=O)[C@H](C)[C@@H](O[C@H]2C[C@@](C)(OC)[C@@H](O)[C@H](C)O2)[C@H](C)[C@@H](O[C@@H]2O[C@H](C)C[C@H](N(C)C)[C@H]2O)[C@](C)(OC)C[C@@H](C)C(=O)[C@H](C)[C@@H](O)[C@]1(C)O [clarithromycin] | 0.25 (≈ 0.334 µM) |  |  |  |  |  |  | 
6 | CCCCCCCCCC(=O)N[C@@H](Cc1c[nH]c2ccccc12)C(=O)N[C@H](CC(N)=O)C(=O)N[C@@H](CC(=O)O)C(=O)N[C@@H]1C(=O)NCC(=O)N[C@@H](CCCN)C(=O)N[C@@H](CC(=O)O)C(=O)N[C@H](C)C(=O)N[C@@H](CC(=O)O)C(=O)NCC(=O)N[C@H](CO)C(=O)N[C@@H]([C@H](C)CC(=O)O)C(=O)N[C@@H](CC(=O)c2ccccc2N)C(=O)O[C@@H]1C [daptomycin] | 2 (≈ 1.23 µM) |  |  |  |  |  |  | 
7 | CC[C@H]1OC(=O)[C@H](C)[C@@H](O[C@H]2C[C@@](C)(OC)[C@@H](O)[C@H](C)O2)[C@H](C)[C@@H](O[C@@H]2O[C@H](C)C[C@H](N(C)C)[C@H]2O)[C@](C)(O)C[C@@H](C)C(=O)[C@H](C)[C@@H](O)[C@]1(C)O [erythromycin] | 0.25 (≈ 0.341 µM) |  |  |  |  |  |  | 
8 | CNC(C)C1CCC(N)C(OC2C(N)CC(N)C(OC3OCC(C)(O)C(NC)C3O)C2O)O1 (centres unmarked) [gentamicin] | 0.5 (≈ 1.05 µM) |  |  |  |  |  |  | 
9 | NC[C@H]1O[C@H](O[C@H]2[C@H](O)[C@@H](O[C@H]3O[C@H](CO)[C@@H](O)[C@H](N)[C@H]3O)[C@H](N)C[C@@H]2N)[C@H](O)[C@@H](O)[C@@H]1O [kanamycin] |  |  |  |  |  |  |  | MIC [1, 8]: 4 µg/mL (≈ 8.26 µM); MIC [2, 9]: 4 µg/mL (≈ 8.26 µM)
10 | CC(=O)NC[C@H]1CN(c2ccc(N3CCOCC3)c(F)c2)C(=O)O1 [linezolid] | 2 (≈ 5.93 µM) | No fluorescence was recorded | significantly (p < 0.0001) prolonged the survival | No fluorescence was recorded | significantly (p < 0.0001) prolonged the survival | No fluorescence was recorded | significantly (p < 0.0001) prolonged the survival | cause of death of embryos in immersion group (zebrafish embryos): potential toxic effect; recovery from infection (fluorescence microscopy and CFU plating) ([3]; bath water immersion 50x MIC): full recovery from infection; survival ([3]; bath water immersion, treatment 2 hpi, 50 CFU yolk infection, until 120 hpf): 90%; mortality rate ([3]; yolk and caudal vein injection 2 hpi, 50 CFU yolk infection): greater than 75%; bacterial numbers ([3]; yolk and caudal vein injection, embryos with lethal infection): exceeding 10^5 CFU/embryo
11 | CN(C)[C@@H]1C(O)=C(C(N)=O)C(=O)[C@@]2(O)C(O)=C3C(=O)c4c(O)cccc4[C@@](C)(O)[C@H]3C[C@@H]12 [tetracycline] | 0.25 (≈ 0.563 µM) | FID values equal to the positive control | did not show any effect | No fluorescence was observed | exhibit treatment efficacy | No fluorescence was observed | exhibit treatment efficacy | bacteria recovered (CFU plating) at 120 hpf ([3]; caudal vein microinjection): no colonies were recovered; bacteria recovered (CFU plating) at 120 hpf ([3]; yolk microinjection): no colonies were recovered
12 | NC[C@H]1O[C@H](O[C@H]2[C@H](O)[C@@H](O[C@H]3O[C@H](CO)[C@@H](O)[C@H](N)[C@H]3O)[C@H](N)C[C@@H]2N)[C@H](N)C[C@@H]1O [tobramycin] | 0.5 (≈ 1.07 µM) |  |  |  |  |  |  | 
13 | CN[C@H](CC(C)C)C(=O)N[C@H]1C(=O)N[C@@H](CC(N)=O)C(=O)N[C@H]2C(=O)N[C@H]3C(=O)N[C@H](C(=O)N[C@H](C(=O)O)c4cc(O)cc(O)c4-c4cc3ccc4O)[C@H](O)c3ccc(c(Cl)c3)Oc3cc2cc(c3O[C@@H]2O[C@H](CO)[C@@H](O)[C@H](O)[C@H]2O[C@H]2C[C@](C)(N)[C@H](O)[C@H](C)O2)Oc2ccc(cc2Cl)[C@H]1O [vancomycin] |  | no reduction in bacterial fluorescence | No increased survival | no reduction in bacterial fluorescence | No increased survival | no development of fluorescence | prevented embryo death | MIC ([1]; Staphylococcus aureus, NEWMAN): 2 µg/mL (≈ 1.38 µM); survival ([3]; yolk microinjection (local treatment) 2 hpi, 50 CFU yolk infection): 90%; colonies recovered at the end of the experiment ([3]; yolk-treated embryos): 0–2500 CFU; MIC ([2]; Staphylococcus aureus, NEWMAN): 2 µg/mL (≈ 1.38 µM)
14 | teicoplanin |  |  |  |  |  |  |  | MIC [1, 8]: 1 µg/mL; MIC [2, 9]: 1 µg/mL
